Source: PubChem BioAssay AID1963985 (Molecular Pharmacology Branch, DTP, NCI, 2024)

System: 252836-082-R-J2-PDC tumor spheroids, viability
Experiment: Anticancer human tumor 252836-082-R-J2-PDC patient-derived head and neck squamous cell carcinoma cell line growth inhibition [PI3K]
Settings: spheroids with HUVEC and MSC; for viability, T/C: stronger effect = lower value
In short: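 Three cell types, namely tumor cells, endothelial cells and mesenchymal stem cells, formed each spheroid. Combinations with four PI3K inhibitors were screened at clinically achievable concentrations decreasing by half-log, and spheroid viability was recorded.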

[1] = curve of first compound, second compound 0.0316 µM
[2] = curve of first compound, second compound 0.1 µM
[3] = curve of first compound, second compound 0.316 µM
[4] = curve of first compound, second compound 1 µM
[5] = second compound 0.0316 µM, first compound 0.000316 µM
[6] = second compound 0.0316 µM, first compound 0.001 µM
[7] = second compound 0.0316 µM, first compound 0.00316 µM
[8] = second compound 0.0316 µM, first compound 0.01 µM
[9] = second compound 0.0316 µM, first compound 0.0316 µM
[10] = second compound 0.0316 µM, first compound 0.1 µM
[11] = second compound 0.1 µM, first compound 0.000316 µM
[12] = second compound 0.1 µM, first compound 0.001 µM
[13] = second compound 0.1 µM, first compound 0.00316 µM
[14] = second compound 0.1 µM, first compound 0.01 µM
[15] = second compound 0.1 µM, first compound 0.0316 µM
[16] = second compound 0.1 µM, first compound 0.1 µM
[17] = second compound 0.316 µM, first compound 0.000316 µM
[18] = second compound 0.316 µM, first compound 0.001 µM
[19] = second compound 0.316 µM, first compound 0.00316 µM
[20] = second compound 0.316 µM, first compound 0.01 µM
[21] = second compound 0.316 µM, first compound 0.0316 µM
[22] = second compound 0.316 µM, first compound 0.1 µM
[23] = second compound 1 µM, first compound 0.000316 µM
[24] = second compound 1 µM, first compound 0.001 µM
[25] = second compound 1 µM, first compound 0.00316 µM
[26] = second compound 1 µM, first compound 0.01 µM
[27] = second compound 1 µM, first compound 0.0316 µM
[28] = second compound 1 µM, first compound 0.1 µM
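Note: spheroids exposed to agents for seven days before readout.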
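Throughout, for viability, T/C: percent of vehicle DMSO control viability so 100% = untreated growth.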

Compound: CC(C)n1nc(-c2ccc3oc(N)nc3c2)c2c(N)ncnc21
- viability, T/C (compound 0.000316 µM): 93.7% [middle of 4 runs]
- viability, T/C (compound 0.001 µM): 91.8% [middle of 4 runs]
- viability, T/C (compound 0.00316 µM): 87.4% [middle of 4 runs]
- viability, T/C (compound 0.01 µM): 80.9% [middle of 4 runs]
- viability, T/C (compound 0.0316 µM): 53.5% [middle of 4 runs]
- viability, T/C (compound 0.1 µM): 23% [middle of 4 runs]
- IC50 (curve of compound): 36.6 nM [middle of 4 runs]

Compound: CC(C)n1nc(-c2ccc3oc(N)nc3c2)c2c(N)ncnc21 + COc1c(OCCCN2CCOCC2)ccc2c3n(c(=NC(=O)c4cnc(N)nc4)nc12)CCN3
- IC50 (curve of first compound, second compound 0.00316 µM): 19 nM
- IC50 (curve of first compound, second compound 0.01 µM): 16.5 nM
- IC50 [1]: 3.33 nM
- IC50 [2]: < 0.316 nM
- IC50 [3]: < 0.316 nM
- IC50 [4]: < 0.316 nM
- viability, T/C (second compound 0.00316 µM, first compound 0.000316 µM): 81.7%
- viability, T/C (second compound 0.00316 µM, first compound 0.001 µM): 81.9%
- viability, T/C (second compound 0.00316 µM, first compound 0.00316 µM): 74.9%
- viability, T/C (second compound 0.00316 µM, first compound 0.01 µM): 58.1%
- viability, T/C (second compound 0.00316 µM, first compound 0.0316 µM): 43.1%
- viability, T/C (second compound 0.00316 µM, first compound 0.1 µM): 20.8%
- viability, T/C (second compound 0.01 µM, first compound 0.000316 µM): 78.7%
- viability, T/C (second compound 0.01 µM, first compound 0.001 µM): 73.5%
- viability, T/C (second compound 0.01 µM, first compound 0.00316 µM): 74.9%
- viability, T/C (second compound 0.01 µM, first compound 0.01 µM): 57.8%
- viability, T/C (second compound 0.01 µM, first compound 0.0316 µM): 38.5%
- viability, T/C (second compound 0.01 µM, first compound 0.1 µM): 20.5%
- viability, T/C [5]: 58.3%
- viability, T/C [6]: 58.4%
- viability, T/C [7]: 48.4%
- viability, T/C [8]: 42.1%
- viability, T/C [9]: 31.4%
- viability, T/C [10]: 15.3%
- viability, T/C [11]: 30.4%
- viability, T/C [12]: 34.8%
- viability, T/C [13]: 33.1%
- viability, T/C [14]: 28.1%
- viability, T/C [15]: 18.3%
- viability, T/C [16]: 9.85%
- viability, T/C [17]: 17.8%
- viability, T/C [18]: 18.9%
- viability, T/C [19]: 12.1%
- viability, T/C [20]: 9.92%
- viability, T/C [21]: 8.75%
- viability, T/C [22]: 2.66%
- viability, T/C [23]: 4.87%
- viability, T/C [24]: 3.85%
- viability, T/C [25]: 4.39%
- viability, T/C [26]: 3.18%
- viability, T/C [27]: 3.53%
- viability, T/C [28]: 2.06%

Compound: CC(Cn1ccc(-c2ccc(C#N)c(Cl)c2)n1)NC(=O)c1cc(C(C)O)[nH]n1 (stereo not drawn)
- viability, T/C (compound 0.0316 µM): 93.6% [middle of 4 runs]
- viability, T/C (compound 0.1 µM): 88.4% [middle of 4 runs]
- viability, T/C (compound 0.316 µM): 98.8% [middle of 4 runs]
- viability, T/C (compound 1 µM): 97.2% [middle of 4 runs]
- viability, T/C (compound 3.16 µM): 92.5% [middle of 4 runs]
- viability, T/C (compound 10 µM): 91.9% [middle of 4 runs]
- IC50 (curve of compound): > 10000 nM

Compound: Cn1ncnc1[C@H]1c2n[nH]c(=O)c3cc(F)cc(c23)N[C@@H]1c1ccc(F)cc1 + Cc1nc(NC(=O)N2CCCC2C(N)=O)sc1-c1ccnc(C(C)(C)C(F)(F)F)c1
- IC50 [1]: > 100 nM
- IC50 [2]: > 100 nM
- IC50 [3]: > 100 nM
- IC50 [4]: 17.2 nM
- IC50 (curve of first compound, second compound 3.16 µM): < 0.316 nM
- IC50 (curve of first compound, second compound 10 µM): < 0.316 nM
- viability, T/C [5]: 88.5%
- viability, T/C [6]: 94.1%
- viability, T/C [7]: 96.9%
- viability, T/C [8]: 76.2%
- viability, T/C [9]: 75.2%
- viability, T/C [10]: 58.5%
- viability, T/C [11]: 80.2%
- viability, T/C [12]: 71.3%
- viability, T/C [13]: 83.4%
- viability, T/C [14]: 65.6%
- viability, T/C [15]: 78.5%
- viability, T/C [16]: 58.4%
- viability, T/C [17]: 62.3%
- viability, T/C [18]: 70.8%
- viability, T/C [19]: 66.6%
- viability, T/C [20]: 57.6%
- viability, T/C [21]: 55.6%
- viability, T/C [22]: 50.6%
- viability, T/C [23]: 58.5%
- viability, T/C [24]: 59.2%
- viability, T/C [25]: 53.9%
- viability, T/C [26]: 61.7%
- viability, T/C [27]: 40.6%
- viability, T/C [28]: 32.4%
- viability, T/C (second compound 3.16 µM, first compound 0.000316 µM): 42.7%
- viability, T/C (second compound 3.16 µM, first compound 0.001 µM): 48.8%
- viability, T/C (second compound 3.16 µM, first compound 0.00316 µM): 39%
- viability, T/C (second compound 3.16 µM, first compound 0.01 µM): 44.7%
- viability, T/C (second compound 3.16 µM, first compound 0.0316 µM): 40.4%
- viability, T/C (second compound 3.16 µM, first compound 0.1 µM): 23.4%
- viability, T/C (second compound 10 µM, first compound 0.000316 µM): 31.8%
- viability, T/C (second compound 10 µM, first compound 0.001 µM): 38.5%
- viability, T/C (second compound 10 µM, first compound 0.00316 µM): 33.6%
- viability, T/C (second compound 10 µM, first compound 0.01 µM): 26.5%
- viability, T/C (second compound 10 µM, first compound 0.0316 µM): 21.9%
- viability, T/C (second compound 10 µM, first compound 0.1 µM): 21.6%
